Laboratory results reported in ChEMBL document CHEMBL1142042, “Nonpeptide alpha(v)beta3 antagonists: identification of potent, chain-shortened 7-oxo RGD mimetics” (Bioorg Med Chem Lett, 2005).

Key:
Integrin alpha-V/beta-3 = Integrin alpha-V/beta-3 (Homo sapiens, UniProt P05106+P06756); assay: Inhibition of 2(S)-(4-125I-benzenesulphonylamino)-3-4-[2-(5,6,7,8-tetrahydro- [1,8]naphthyridin-2-yl)-ethyl]-benzoylamino-propionic acid binding to alphaV-beta3 integrin; assay type: protein-complex assay
[1] = Plasma half life when dosed orally at 1 mpk and intravenously at 0.2 mpk to dogs; n = 2; assay type: ADME, organism-based, Canis lupus familiaris; settings: dog
[2] = Oral bioavailability in dog (dose 1 mg/kg); assay type: ADME, organism-based, Canis lupus familiaris; settings: in vivo
[3] = Partition coefficient (logP); assay type: physicochemical; settings: octanol/water
[4] = In vitro inhibition of mouse osteoblast-like 1.8 cells transformation into osteoclasts; assay type: functional
[5] = Clearance when dosed intravenously at 0.2 mpk to dogs; n = 2; assay type: ADME, organism-based, Canis lupus familiaris; settings: dog, in vivo, iv, 0.2 mg/kg

Integrin alpha-V/beta-3, sequence (P05106 27-788 limits assumed): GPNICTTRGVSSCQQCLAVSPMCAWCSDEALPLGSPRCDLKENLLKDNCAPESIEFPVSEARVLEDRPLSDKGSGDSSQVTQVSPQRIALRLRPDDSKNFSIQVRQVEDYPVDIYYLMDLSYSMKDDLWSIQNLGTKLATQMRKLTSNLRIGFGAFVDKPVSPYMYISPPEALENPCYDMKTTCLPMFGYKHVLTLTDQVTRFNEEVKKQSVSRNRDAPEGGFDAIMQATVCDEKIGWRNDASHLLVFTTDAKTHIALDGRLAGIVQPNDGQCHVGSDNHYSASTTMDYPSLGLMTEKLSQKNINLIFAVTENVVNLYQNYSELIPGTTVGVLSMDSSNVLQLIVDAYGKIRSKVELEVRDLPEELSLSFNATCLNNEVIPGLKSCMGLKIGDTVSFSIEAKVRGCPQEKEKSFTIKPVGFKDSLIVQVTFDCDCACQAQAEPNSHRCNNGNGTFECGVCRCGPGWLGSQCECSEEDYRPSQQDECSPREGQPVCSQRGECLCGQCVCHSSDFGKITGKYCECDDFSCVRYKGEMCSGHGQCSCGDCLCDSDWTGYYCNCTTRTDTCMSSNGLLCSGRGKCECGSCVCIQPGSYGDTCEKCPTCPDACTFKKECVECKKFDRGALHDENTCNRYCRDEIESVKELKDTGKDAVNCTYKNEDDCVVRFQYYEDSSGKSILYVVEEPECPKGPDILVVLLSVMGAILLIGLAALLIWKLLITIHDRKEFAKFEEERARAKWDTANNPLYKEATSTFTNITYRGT
Integrin alpha-V/beta-3, sequence (P06756 31-889 limits assumed): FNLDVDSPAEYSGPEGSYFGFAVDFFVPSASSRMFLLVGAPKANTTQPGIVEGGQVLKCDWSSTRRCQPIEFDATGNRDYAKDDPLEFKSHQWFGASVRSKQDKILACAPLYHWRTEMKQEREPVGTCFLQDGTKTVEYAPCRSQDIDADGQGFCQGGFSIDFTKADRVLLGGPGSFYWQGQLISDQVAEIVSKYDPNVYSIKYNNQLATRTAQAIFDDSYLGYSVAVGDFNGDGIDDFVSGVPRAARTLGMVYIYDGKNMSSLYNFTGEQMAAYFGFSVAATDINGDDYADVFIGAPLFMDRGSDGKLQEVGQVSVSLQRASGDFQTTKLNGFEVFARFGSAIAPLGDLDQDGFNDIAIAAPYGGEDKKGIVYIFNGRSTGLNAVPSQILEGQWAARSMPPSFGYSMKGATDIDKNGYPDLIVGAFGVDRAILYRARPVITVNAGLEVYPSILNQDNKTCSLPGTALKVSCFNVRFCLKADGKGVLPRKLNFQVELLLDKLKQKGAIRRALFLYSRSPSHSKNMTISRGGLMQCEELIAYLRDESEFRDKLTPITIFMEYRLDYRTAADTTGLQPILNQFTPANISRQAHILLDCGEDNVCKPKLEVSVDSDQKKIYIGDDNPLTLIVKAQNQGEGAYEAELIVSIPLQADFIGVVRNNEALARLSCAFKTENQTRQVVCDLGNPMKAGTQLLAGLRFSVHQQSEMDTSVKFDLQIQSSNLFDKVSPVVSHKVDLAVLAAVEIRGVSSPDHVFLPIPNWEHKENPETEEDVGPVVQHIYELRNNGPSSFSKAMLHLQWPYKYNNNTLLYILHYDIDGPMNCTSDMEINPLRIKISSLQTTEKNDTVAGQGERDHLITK
Integrin alpha-V/beta-3, sequence (P06756 891-1048 limits assumed): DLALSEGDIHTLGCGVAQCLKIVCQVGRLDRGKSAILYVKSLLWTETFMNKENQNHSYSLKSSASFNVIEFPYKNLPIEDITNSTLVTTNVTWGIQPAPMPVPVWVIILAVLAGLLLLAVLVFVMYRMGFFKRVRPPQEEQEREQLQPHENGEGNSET

SMILES | IC50 (Integrin alpha-V/beta-3) [nM] | half-life [1] [h] | bioavailability [2] [%] | logP [3] | IC50 [4] [nM] | clearance [5] [mL/min/kg]
COc1ccc([C@@H](CCC[C@H](O)CCc2ccc3c(n2)NCCC3)CC(=O)O)cn1 | 0.24 | 6.1 | 60 | 0.1 | 8 | 2.5
COc1ccc([C@@H](CCCCCCc2ccc3c(n2)NCCC3)CC(=O)O)cn1 |  | 9 |  |  | 39 | 4
COc1ccc([C@@H](CCCC(=O)CCc2ccc3c(n2)NCCC3)CC(=O)O)cn1 | 0.16 | 7 | 75 | 0 | 12 | 6.7
COc1ccc([C@@H](CCC[C@@H](O)CCc2ccc3c(n2)NCCC3)CC(=O)O)cn1 | 0.24 |  |  | 0 | 36 | 
